Results reported in US20250230193A1, “CYCLIC COMPOUND HAVING SELECTIVE KRAS INHIBITORY EFFECT ON HRAS AND NRAS” (CHUGAI SEIYAKU KABUSHIKI KAISHA, priority 2022, published 2025).
Where a SMILES comes first, the peptide text is derived from it. Bridges are numbered along the chain shown (N, C = ends). [ ]: non-standard residue; d: D form. The star is where a group is joined. hPhe(3-Cl-4-CF3) = N[C@@H](CCc1ccc(C(F)(F)F)c(Cl)c1)C(=O)O; NPrPhe(4-CF3) = CCCN[C@@H](Cc1ccc(C(F)(F)F)cc1)C(=O)O; Pro(4-spirocPr) = O=C(O)[C@@H]1CC2(CC2)CN1; Abu(4,4,4-F3) = N[C@@H](CC(F)(F)F)C(=O)O; Morpholine(3S-CO) = O=C(O)[C@@H]1COCCN1; Pip(4,4-F2) = O=C(O)[C@@H]1CC(F)(F)CCN1; NMeGly(cPent) = CN[C@H](C(=O)O)C1CCCC1; Gly(cPent) = N[C@H](C(=O)O)C1CCCC1; Hyp = O=C(O)[C@@H]1C[C@@H](O)CN1; Gly(cBu) = N[C@H](C(=O)O)C1CCC1; NMeD = CN[C@@H](CC(=O)O)C(=O)O; NMeL = CN[C@@H](CC(C)C)C(=O)O; Pip = O=C(O)[C@@H]1CCCCN1; Morpholide = C1CN(*)CCO1; Ac5c = NC1(C(=O)O)CCCC1; Aze = O=C(O)[C@@H]1CCN1; NEtG = CCNCC(=O)O; Sar = CNCC(=O)O

Tests used:
[1] = biological target: GDP-bound NRAS wild-type protein (Homo sapiens, UniProt P01111); assay: Binding to NRAS by surface plasmon resonance (SPR), Single Cycle Kinetics; settings: KD ratio NRAS/KRAS, SPR
Sequence of GDP-bound NRAS wild-type protein (P01111 whole entry): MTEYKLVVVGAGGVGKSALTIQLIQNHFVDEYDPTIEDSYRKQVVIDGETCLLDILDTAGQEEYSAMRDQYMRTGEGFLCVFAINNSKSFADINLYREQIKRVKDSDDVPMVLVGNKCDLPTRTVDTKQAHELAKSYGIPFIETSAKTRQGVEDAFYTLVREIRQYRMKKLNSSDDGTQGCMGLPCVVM

[2] = biological target: GDP-bound HRAS wild-type protein (Homo sapiens, UniProt P01112); assay: Binding to HRAS by surface plasmon resonance (SPR), Single Cycle Kinetics; settings: KD ratio HRAS/KRAS, SPR
Sequence of GDP-bound HRAS wild-type protein (P01112 whole entry): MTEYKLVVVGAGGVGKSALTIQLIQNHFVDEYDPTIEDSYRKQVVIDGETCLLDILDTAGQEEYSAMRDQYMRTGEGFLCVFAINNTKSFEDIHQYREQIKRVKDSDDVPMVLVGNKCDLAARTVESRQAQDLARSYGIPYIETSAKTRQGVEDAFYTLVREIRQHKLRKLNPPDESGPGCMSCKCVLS

CCCN1C(=O)CN(C)C(=O)CN(CC)C(=O)[C@H](CC(F)(F)F)NC(=O)[C@H](CC(C)C)N(C)C(=O)C[C@@H](C(=O)N2CCOCC2)N(C)C(=O)[C@H](C2CCCC2)N(C)C(=O)C2(CCCC2)NC(=O)[C@@H]2CCCN2C(=O)[C@H](CCc2ccc(C(F)(F)F)c(Cl)c2)NC(=O)CN(C)C(=O)[C@@H]1Cc1ccc(C(F)(F)F)cc1 [PP0291] ([NMeL][Abu(4,4,4-F3)][NEtG][Sar][NPrPhe(4-CF3)][Sar][hPhe(3-Cl-4-CF3)]P[Ac5c][NMeGly(cPent)][NMeD]-Morpholide; lactam N-11)
NRAS/KRAS (ratio of KD for GDP-bound NRAS wild-type to KD for KRAS) [1]: B (a compound having 3 or more and less than 10 is denoted as B) | HRAS/KRAS (ratio of KD for GDP-bound HRAS wild-type to KD for KRAS) [2]: B (a compound having 3 or more and less than 10 is denoted as B)

CCCN1C(=O)CN(C)C(=O)CN(CC)C(=O)[C@H](C2CCC2)NC(=O)[C@H](CC(C)C)N(C)C(=O)C[C@@H](C(=O)N2CCOCC2)N(C)C(=O)[C@H](C2CCCC2)N(C)C(=O)C2(CCCC2)NC(=O)[C@@H]2CCCN2C(=O)[C@H](CCc2ccc(C(F)(F)F)c(Cl)c2)NC(=O)CN(C)C(=O)[C@@H]1Cc1ccc(C(F)(F)F)cc1 [PP0292] ([NMeL][Gly(cBu)][NEtG][Sar][NPrPhe(4-CF3)][Sar][hPhe(3-Cl-4-CF3)]P[Ac5c][NMeGly(cPent)][NMeD]-Morpholide; lactam N-11)
NRAS/KRAS (ratio of KD for GDP-bound NRAS wild-type to KD for KRAS) [1]: B (a compound having 3 or more and less than 10 is denoted as B) | HRAS/KRAS (ratio of KD for GDP-bound HRAS wild-type to KD for KRAS) [2]: C (A compound having a KD ratio of 0.1 or more and less than 3 is denoted as C)

CCCN1C(=O)CN(C)C(=O)CN(CC)C(=O)[C@H](C2CCCC2)NC(=O)[C@H](CC(C)C)N(C)C(=O)C[C@@H](C(=O)N2CCOCC2)N(C)C(=O)[C@H](C2CCCC2)N(C)C(=O)C2(CCCC2)NC(=O)[C@@H]2CCCN2C(=O)[C@H](CCc2ccc(C(F)(F)F)c(Cl)c2)NC(=O)CN(C)C(=O)[C@@H]1Cc1ccc(C(F)(F)F)cc1 [PP0293] ([NMeL][Gly(cPent)][NEtG][Sar][NPrPhe(4-CF3)][Sar][hPhe(3-Cl-4-CF3)]P[Ac5c][NMeGly(cPent)][NMeD]-Morpholide; lactam N-11)
NRAS/KRAS (ratio of KD for GDP-bound NRAS wild-type to KD for KRAS) [1]: B (a compound having 3 or more and less than 10 is denoted as B) | HRAS/KRAS (ratio of KD for GDP-bound HRAS wild-type to KD for KRAS) [2]: C (A compound having a KD ratio of 0.1 or more and less than 3 is denoted as C)

CCCN1C(=O)CN(C)C(=O)CN(CC)C(=O)[C@H]([C@@H](C)CC)NC(=O)[C@H](CC(C)C)N(C)C(=O)C[C@@H](C(=O)N2CCOCC2)N(C)C(=O)[C@H](C2CCCC2)N(C)C(=O)C2(CCCC2)NC(=O)[C@@H]2CCN2C(=O)[C@H](CCc2ccc(C(F)(F)F)c(Cl)c2)NC(=O)CN(C)C(=O)[C@@H]1Cc1ccc(C(F)(F)F)cc1 [PP0294] ([NMeL]I[NEtG][Sar][NPrPhe(4-CF3)][Sar][hPhe(3-Cl-4-CF3)][Aze][Ac5c][NMeGly(cPent)][NMeD]-Morpholide; lactam N-11)
NRAS/KRAS (ratio of KD for GDP-bound NRAS wild-type to KD for KRAS) [1]: B (a compound having 3 or more and less than 10 is denoted as B) | HRAS/KRAS (ratio of KD for GDP-bound HRAS wild-type to KD for KRAS) [2]: C (A compound having a KD ratio of 0.1 or more and less than 3 is denoted as C)

CCCN1C(=O)CN(C)C(=O)CN(CC)C(=O)[C@H]([C@@H](C)CC)NC(=O)[C@H](CC(C)C)N(C)C(=O)C[C@@H](C(=O)N2CCOCC2)N(C)C(=O)[C@H](C2CCCC2)N(C)C(=O)C2(CCCC2)NC(=O)[C@@H]2CC3(CC3)CN2C(=O)[C@H](CCc2ccc(C(F)(F)F)c(Cl)c2)NC(=O)CN(C)C(=O)[C@@H]1Cc1ccc(C(F)(F)F)cc1 [PP0295] ([NMeL]I[NEtG][Sar][NPrPhe(4-CF3)][Sar][hPhe(3-Cl-4-CF3)][Pro(4-spirocPr)][Ac5c][NMeGly(cPent)][NMeD]-Morpholide; lactam N-11)
NRAS/KRAS (ratio of KD for GDP-bound NRAS wild-type to KD for KRAS) [1]: B (a compound having 3 or more and less than 10 is denoted as B) | HRAS/KRAS (ratio of KD for GDP-bound HRAS wild-type to KD for KRAS) [2]: C (A compound having a KD ratio of 0.1 or more and less than 3 is denoted as C)

CCCN1C(=O)CN(C)C(=O)CN(CC)C(=O)[C@H]([C@@H](C)CC)NC(=O)[C@H](CC(C)C)N(C)C(=O)C[C@@H](C(=O)N2CCOCC2)N(C)C(=O)[C@H](C2CCCC2)N(C)C(=O)C2(CCCC2)NC(=O)[C@@H]2C[C@@H](OC)CN2C(=O)[C@H](CCc2ccc(C(F)(F)F)c(Cl)c2)NC(=O)CN(C)C(=O)[C@@H]1Cc1ccc(C(F)(F)F)cc1 [PP0296] ([NMeL]I[NEtG][Sar][NPrPhe(4-CF3)][Sar][hPhe(3-Cl-4-CF3)][Hyp](Me)[Ac5c][NMeGly(cPent)][NMeD]-Morpholide; lactam N-11)
NRAS/KRAS (ratio of KD for GDP-bound NRAS wild-type to KD for KRAS) [1]: B (a compound having 3 or more and less than 10 is denoted as B) | HRAS/KRAS (ratio of KD for GDP-bound HRAS wild-type to KD for KRAS) [2]: C (A compound having a KD ratio of 0.1 or more and less than 3 is denoted as C)

CCCN1C(=O)CN(C)C(=O)CN(CC)C(=O)[C@H]([C@@H](C)CC)NC(=O)[C@H](CC(C)C)N(C)C(=O)C[C@@H](C(=O)N2CCOCC2)N(C)C(=O)[C@H](C2CCCC2)N(C)C(=O)C2(CCCC2)NC(=O)[C@@H]2CCCCN2C(=O)[C@H](CCc2ccc(C(F)(F)F)c(Cl)c2)NC(=O)CN(C)C(=O)[C@@H]1Cc1ccc(C(F)(F)F)cc1 [PP0297] ([NMeL]I[NEtG][Sar][NPrPhe(4-CF3)][Sar][hPhe(3-Cl-4-CF3)][Pip][Ac5c][NMeGly(cPent)][NMeD]-Morpholide; lactam N-11)
NRAS/KRAS (ratio of KD for GDP-bound NRAS wild-type to KD for KRAS) [1]: B (a compound having 3 or more and less than 10 is denoted as B) | HRAS/KRAS (ratio of KD for GDP-bound HRAS wild-type to KD for KRAS) [2]: C (A compound having a KD ratio of 0.1 or more and less than 3 is denoted as C)

CCCN1C(=O)CN(C)C(=O)CN(CC)C(=O)[C@H]([C@@H](C)CC)NC(=O)[C@H](CC(C)C)N(C)C(=O)C[C@@H](C(=O)N2CCOCC2)N(C)C(=O)[C@H](C2CCCC2)N(C)C(=O)C2(CCCC2)NC(=O)[C@@H]2CC(F)(F)CCN2C(=O)[C@H](CCc2ccc(C(F)(F)F)c(Cl)c2)NC(=O)CN(C)C(=O)[C@@H]1Cc1ccc(C(F)(F)F)cc1 [PP0298] ([NMeL]I[NEtG][Sar][NPrPhe(4-CF3)][Sar][hPhe(3-Cl-4-CF3)][Pip(4,4-F2)][Ac5c][NMeGly(cPent)][NMeD]-Morpholide; lactam N-11)
NRAS/KRAS (ratio of KD for GDP-bound NRAS wild-type to KD for KRAS) [1]: B (a compound having 3 or more and less than 10 is denoted as B) | HRAS/KRAS (ratio of KD for GDP-bound HRAS wild-type to KD for KRAS) [2]: C (A compound having a KD ratio of 0.1 or more and less than 3 is denoted as C)

CCCN1C(=O)CN(C)C(=O)CN(CC)C(=O)[C@H]([C@@H](C)CC)NC(=O)[C@H](CC(C)C)N(C)C(=O)C[C@@H](C(=O)N2CCOCC2)N(C)C(=O)[C@H](C2CCCC2)N(C)C(=O)C2(CCCC2)NC(=O)[C@@H]2COCCN2C(=O)[C@H](CCc2ccc(C(F)(F)F)c(Cl)c2)NC(=O)CN(C)C(=O)[C@@H]1Cc1ccc(C(F)(F)F)cc1 [PP0299] ([NMeL]I[NEtG][Sar][NPrPhe(4-CF3)][Sar][hPhe(3-Cl-4-CF3)][Morpholine(3S-CO)][Ac5c][NMeGly(cPent)][NMeD]-Morpholide; lactam N-11)
NRAS/KRAS (ratio of KD for GDP-bound NRAS wild-type to KD for KRAS) [1]: B (a compound having 3 or more and less than 10 is denoted as B) | HRAS/KRAS (ratio of KD for GDP-bound HRAS wild-type to KD for KRAS) [2]: B (a compound having 3 or more and less than 10 is denoted as B)
